# Laboratory results as given in patent US20230227392A1, “A APPLICATION OF CYATHANE DITERPENOIDS IN PREPARATION OF DRUGS FOR TREATING NEUROINFLAMMATION” (Northwest A&F University, priority 2022, published 2023).
# “Also recorded” adds a separate entry of the source.
# Legend:
# Assay type in all cases: cell-based, mouse
# [1] = system: LPS-induced BV-2 microglia; test: Inhibition of nitric oxide (NO) production, Griess method; conditions: 1 μg/mL LPS + 10 μM compound, 24 h, FIG. 2
# Protocol: The mouse microglia (BV-2) were cultured in the DMEM culture medium containing 10% of fetal bovine serum (FBS) and 1% of antibiotics (100 U/mL of […] and penicillin) at 37° C. in the incubator of 5% CO2.
# NO is an important inflammatory mediator. Excessive production of NO is common in neurons and glial cells of brains with ND^[8]. Griess reagent was configured to evaluate the influence on NO production in order to measure the anti-inflammatory effects of sarcodonin A and its derivative in LPS-induced BV-2 microglia. Before adding the detection reagent, BV-2 cells (2×10^5/mL) were incubated in the 96-well plate and cultured at 37° C. for 24 h. The experimental groups were divided into a control group (DMSO), an LPS-treated group ([…] of LPS) and a compound-treated group (1 μg/mL of LPS+10 μM compound), and then incubation was performed for 24 h. The nitrite concentration in the culture medium was measured by a commercial analysis kit. The main principle was based on the griess method. Supernatant of the BV-2 cells (50 μL) reacted with the griess reagent (50 μL of griess regent I and 50 μL of griess regent II). The absorbance was measured at 540 nm on the Bio-Tek micropore plate reader, and the nitrite concentration was calculated by a nitrite standard curve with sodium nitrite as the standard.
# The inhibition rate %=(ALPS−Acompound)/(ALPS−Ablank)×100;
# LPS-induced BV-2 cells [2] = test: M1/M2 marker protein expression by Western blotting; conditions: FIG. 5; for M1/M2 polarization of the LPS-induced BV-2 cells: conclusion from marker expression
# Protocol: The protein expression of iNOS, COX-2(M1 marker) and ARG-1(M2 marker) was analyzed by Western blotting. The BV-2 cells (5×10^5 cfu) cultured in a 6 cm dish were pretreated with 1 or 6 ([…]) respectively for 1 h, and then 1 μg/ml LPS was added for 24 h. The cells were lysed in an ice-cold RIPA lysis buffer with a mixed solution of 10 mM of PMSF and 1% of protein inhibitors. The cytosol lysate was centrifuged at 4° C. at 12000 rpm for 30 minutes. Total protein was isolated from the lysate and their concentration was determined by BCA.
# A sample was separated by 8%-12% SDS-PAGE and transferred to a […] PVDF membrane. The membrane was blocked with 5% BSA in TBST (20 mM of Tris-HCl, 150 mM of NaCl, 0.1% of Tween-20) for 1 h at room temperature, and then incubated with appropriate primary antibodies: anti-β-tubulin (1:1000), anti-GAPDH (1:1000), anti-iNOS (1:500), anti-COX-2 (1:1000) and anti-ARG-1 (1:500) at 4° C. overnight. The membrane was washed in the TBST for 3×5 minutes, and then incubated with the secondary antibody bound to appropriate peroxidase (HRP) and left at room temperature for 1 h. The blot was washed in the TBST for 3×5 minutes and exposed to an ECL chemiluminescence reagent. At last, the signal was detected by the Bio-Rad ChemiDoc XRS+ system.
# LPS-induced BV-2 cells [3] = test: mRNA levels of M1/M2 biomarkers by qRT-PCR; conditions: FIG. 3; for mRNA expression of COX-2 induced by the LPS / mRNA level of IL-10: 10 μM / tested concentration; for mRNA expression of IL-6 induced by the LPS / mRNA level of ARG-1: 10 μM; for mRNA expression of TNF-α induced by the LPS: 1 at 10 μM; for mRNA level of IL-10 / mRNA level of ARG-1: M2 marker
# Protocol: In order to detect the regulation of M1/M2 phenotype switch by 1 and 6, the effects on the mRNA expression of representative M1 and M2 biomarkers in the LPS-stimulated BV-2 cells were evaluated. The cells were incubated into a 6 cm of culture dish (5 mL/dish) at a density of 2×10^5 cfu, and cultured in a constant-temperature incubator of 5% CO2 at 37° C. for 12 h. According to the manufacturer's instructions, total RNA was extracted by Trizol, and concentration and purity thereof were measured by a UV-Vis spectrophotometer. 2 μg of isolated RNA was reversely transcribed into cDNA by Prime Script RTMaster Mix kit. By using a Syr Green quantitative RT-PCR kit, an mRNA level was evaluated by qRT-PCR response. β-actin was used as an internal standard. The primer sequences are as follows (Table 1).
# LPS-induced BV-2 cells [4] = test: M1/M2 marker cytokine secretion by ELISA; conditions: for production of IL-1β / production of IL-6 / production of IL-10 / production of TNF-α: 3 and 10 μM, 1 h pretreatment then LPS 24 h, effect enhanced as concentration increases, FIG. 4
# Protocol: To further evaluate the role of 1 and 6 in M1 polarization of the LPS-induced microglia, the release of pro-inflammatory M1 cytokines (including TNF-α, IL-6 and IL-1β) and anti-inflammatory M2 cytokines (including IL-10) in the LPS-induced BV-2 cells was detected by ELISA. The BV-2 cells were incubated in a 6-well plate (2 mL/well) at a density of 2×10^5 cfu, cultured in a constant-temperature incubator of 5% CO2 at 37° C. for 24 h, then pretreated with different concentrations of compounds 1 and 6 (3 μM, 10 μM), LPS (1 μg/mL) and DMSO for 1 h, and then induced by the LPS for 24 h. Supernatant of the cell culture medium was collected, and the concentrations of TNF-α, IL-6, IL-10 and IL-1β were measured according to manufacturer's instructions.
# LPS-induced BV-2 cells [5] = test: Nuclear translocation of NF-κB subunit p65 by Western blotting; conditions: Western blot of nuclear and cytoplasmic parts
# Text: The nuclear translocation of NF-κB subunit p65 as an activation index of NF-κB is examined. The cells were collected in the same way for Western blotting. A extraction kit is configured to isolate and extract nuclear and cytoplasmic parts according to the instructions. The primary antibodies are anti-NF-κB p65 (1:1000), anti-Lamin B1 (1:1000) and anti-GAPDH (1:1000).
# [6] = system: LPS-induced BV-2 microglia; test: MAPK phosphorylation (ERK1/2, JNK, p38 MAPK) by Western blotting; conditions: Western blot, 1 h pretreatment then LPS 1 μg/mL 30 min; FIG. 6
# Protocol: Previous studies have shown that the over-activation of MAPK signaling cascade is related to neuroinflammatory reaction^[9-10]. In order to clarify the action mode of 6 in reversing the M1 polarization of the microglia, the effects of 6 on phosphorylation levels of ERK1/2, […] and p38 MAPK in the LPS-induced BV-2 microglia are further studied. BV-2 cells (5×10^5 cfu) cultured in a 6 cm dish are pretreated with compound 1 or 6 ([…]) respectively for 1 h, and then added with the LPS (1 μg/mL) for 30 min. The similar method is used by Western blotting, and the primary antibodies are: […] (1:1000), anti-GAPDH (1:1000), anti-ERK1/2 (1:1000), anti-phosphorylated ERK1/2 (1:1000), anti-p38 MAPK (1:2000), anti-phosphorylated p38 MAPK (1:1000), anti-JNK (1:2000) and anti-phosphorylated JNK (1:1000).
# [7] = Western blot, 1 h pretreatment then 1 μg/ml LPS 24 h
Compound,inhibition of NO production (in words) [1],protein expression of ARG-1 (LPS-induced BV-2 cells [2]; [7]),protein expression of LPS-induced iNOS (LPS-induced BV-2 cells [2]; [7]),M1/M2 polarization of the LPS-induced BV-2 cells (LPS-induced BV-2 cells [2]),mRNA expression of COX-2 induced by the LPS (LPS-induced BV-2 cells [3]; M1 marker),mRNA expression of IL-6 induced by the LPS (LPS-induced BV-2 cells [3]; M1 marker),mRNA expression of TNF-α induced by the LPS (LPS-induced BV-2 cells [3]; M1 marker),mRNA level of IL-10 (LPS-induced BV-2 cells [3]),mRNA level of ARG-1 (LPS-induced BV-2 cells [3]),production of IL-1β (LPS-induced BV-2 cells [4]),production of IL-6 (LPS-induced BV-2 cells [4]),production of IL-10 (LPS-induced BV-2 cells [4]),production of TNF-α (LPS-induced BV-2 cells [4]),also measured
CC(COC(=O)c1ccccc1Cl)C1=C2C3=CC=C(C=O)CC(O)C3(C)CCC2(C)CC1 (centres unmarked) [Compound 3],higher inhibitory activity,–,–,–,–,–,–,–,–,–,–,–,–,–
"CC(CO)C1=C2C3=CC=C(C=O)C[C@H](O)[C@]3(C)CC[C@@]2(C)CC1 (some centres unmarked) [Compound 1, sarcodonin A]",can inhibit,promotes,inhibits,inhibit the M1 polarization and enhance M2 polarization,does not affect,inhibits,inhibits,does not affect,enhance,inhibitory effect,inhibitory effect,promoting effect,inhibitory effect,–
CC(COC(=O)c1ccc(Br)cc1)C1=C2C3=CC=C(C=O)CC(O)C3(C)CCC2(C)CC1 (centres unmarked) [Compound 6],higher inhibitory activity; also recorded: strongest activity,more obvious promoting effect,more obvious inhibitory effect,inhibit the M1 polarization and enhance M2 polarization,inhibits,inhibits,inhibits,promotes,promotes,inhibitory effect,inhibitory effect,promoting effect,inhibitory effect,"protein expression of COX-2 (LPS-induced BV-2 cells [2]; [7]): more obvious inhibitory effect; LPS-stimulated nuclear translocation of NF-κB p65 (LPS-induced BV-2 cells [5]): significantly inhibits; mRNA expression of IL-1β induced by the LPS (LPS-induced BV-2 cells [3]; M1 marker): inhibits; mRNA expression of iNOS induced by the LPS (LPS-induced BV-2 cells [3]; M1 marker): inhibits; comparison of effect on cytokine production at the same concentration (LPS-induced BV-2 cells [4]; IL-6, IL-1β, TNF-α, IL-10, FIG. 4): more effective than 1; activation (phosphorylation) of ERK1/2 induced by the LPS [6]: significantly inhibits; activation (phosphorylation) of INK induced by the LPS [6]: significantly inhibits; phosphorylation of p38 MAPK [6]: little effect; inhibitory activity on NO production (inhibition rate) ([1]; compared with the LPS control group): 55%"
CC(COC(=O)c1ccccc1Br)C1=C2C3=CC=C(C=O)CC(O)C3(C)CCC2(C)CC1 (centres unmarked) [Compound 4],higher inhibitory activity; also recorded: highest inhibitory activity in o-halogen-substituted 19-O-benzoyl derivatives,–,–,–,–,–,–,–,–,–,–,–,–,–
CC(=O)OCC(C)C1=C2C3=CC=C(C=O)CC(OC(C)=O)C3(C)CCC2(C)CC1 (centres unmarked) [Compound 7],strong inhibitory effect similar to that of 6,–,–,–,–,–,–,–,–,–,–,–,–,–
